Like-named read-outs stand apart in the source and are kept apart here.
Tests used:
[1] = system: muscarinic M3 receptor; test: in vivo; details: rat, i.v., Table 3
Description: (§1) Tests for antagonism against muscarinic M3 receptor (in vivo)
(§2) 1) Tests for bronchodilation in rats
(§3) Eight- to eleven-weeks-old male rats of the Sprague-Dawley strain, weighing 300-400 g, were anesthetized with urethane (750 mg/kg, i.p.) and a-chloralose (37.5 mg/kg, i.p.). A bronchus was intubated, and the right jugular vein was cannulated for drug administration. […] To evoke an increase in airway resistance, acetylcholine (50 μg/kg, i.v.) was administered to the animals. Mean values for the acetylcholine-induced increase in airway resistance as measured five minutes before (control) and five minutes after test compound administration were calculated and the results were expressed as percentages of the control response. The ID50 value was calculated from the dose-response curve of the test compound using probit analysis and defined as the drug dose that inhibited the acetylcholine-induced increase in airway resistance in the control group by 50 %.

[2] = target: T1, muscarinic M2 receptors (Rattus norvegicus, UniProt P10980); test: Bradycardia in rats (acetylcholine-induced); assay type: in vivo; details: iv, 5 min, i.v., 5 minutes after administration, 50% inhibition of acetylcholine-induced bradycardia, read-out: Bradycardia ID50
T1 construct: a membrane specimen from the heart was used as the membrane specimen; from tissue; host or cells: rat heart membranes (SD rat)
T1 sequence (P10980 1-466): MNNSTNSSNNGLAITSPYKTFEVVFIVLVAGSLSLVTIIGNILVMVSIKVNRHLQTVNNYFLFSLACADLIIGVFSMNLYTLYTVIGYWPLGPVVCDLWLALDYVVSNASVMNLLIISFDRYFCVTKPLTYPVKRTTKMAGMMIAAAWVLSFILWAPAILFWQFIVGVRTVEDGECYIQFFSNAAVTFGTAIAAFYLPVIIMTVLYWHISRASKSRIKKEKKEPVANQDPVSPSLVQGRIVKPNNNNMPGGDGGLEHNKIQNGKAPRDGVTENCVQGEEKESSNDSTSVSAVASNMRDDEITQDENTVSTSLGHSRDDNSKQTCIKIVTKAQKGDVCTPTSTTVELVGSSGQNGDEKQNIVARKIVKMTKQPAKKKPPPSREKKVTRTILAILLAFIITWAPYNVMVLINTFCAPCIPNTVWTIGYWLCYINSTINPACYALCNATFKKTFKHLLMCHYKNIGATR
Description: 6) Tests for bradycardia in rats
Eight- to eleven-weeks-old male rats of the Sprague-Dawley strain, weighing 300-400 g, were anesthetized with urethane (750 mg/kg, i.p.) and α-chloralose (37.5 mg/kg, i.p.). A bronchus was intubated, and the right jugular vein was cannulated for drug administration. […] To evoke bradycardia, acetylcholine (50 μg/kg, i.v.) was administered to the animals. Mean values for the acetylcholine-induced decrease in heart rate as measured five minutes before (control) and five minutes after test compound administration were calculated and the results were expressed as percentages relative to the control response. The ID50 value was calculated from the dose-response curve of the test compound using probit analysis and defined as the drug dose that inhibited the acetylcholine-induced bradycardia in the control group by 50%.

[3] = target: T2, muscarinic M3 receptor (Rattus norvegicus, UniProt P08483); test: Intravesical bladder pressure in rats; assay type: in vivo; set-up: from tissue; details: i.v., 25% inhibition of peak intravesical bladder pressure
Description: as §1
4) Tests for intravesical bladder pressure in rats
These tests were performed according to the method of Maggi et al. (Drug Dev. Res. 10: 157-170, 1987). Briefly, eight- to ten-weeks-old male rats of the Sprague-Dawley strain, weighing 330-370 g, were anesthetized by subcutaneous administration of urethane (1 g/kg) and α-chloralose (50 mg/kg), and the right jugular vein was cannulated for drug administration. The body temperature was kept constant by means of a heating pad maintained at 37° C. Through a midline incision of the abdomen, the urinary bladder was exposed and emptied of urine by the application of a slight manual pressure. A 20-gauge needle was inserted through the apex of the bladder dome by 3-4 mm into its lumen. The needle had previously been connected to a pressure transducer and an infusion pump by means of polyethylene tubing and the whole system filled with saline. After a 30-minutes equilibration period at zero volume, saline was infused (2.8 ml/hr) until a coordinated sustained contraction, reflecting the peak intravesical bladder pressure, occured. The bladder was then emptied manually and allowed to rest for five minutes. PvesP was defined as the difference between the maximum and resting bladder pressures. This procedure was repeated at least five times and the evaluation of a test compound was carried out in the animals in which a stable peak intravesical bladder pressure was recorded. The drug potency (ID25 ) was determined after intravenous administration of the test compound during the rest period. Five minutes after drug administration, the infusion of saline was started to induce micturition contraction and the peak intravesical bladder pressure was recorded. The depression in peak intravesical bladder pressure was expressed as a percent of the control peak intravesical bladder pressure observed before administration of the test compound. The ID25 value, calculated by probit analysis, was defined as the drug dose that inhibited the control peak intravesical bladder pressure by 25%.

[4] = target: T2, muscarinic M3 receptor; test: Intestinal propulsion in rats (charcoal meal); assay type: in vivo; set-up: from tissue; details: i.v., 15% inhibition of intestinal propulsion
Description: as §1
5) Tests for intestinal propulsion in rats
Five- to seven-weeks-old male rats of the Sprague-Dawley strain were fasted overnight. A test compound was administered intravenously to the animals. Five minutes later, 1 ml per animal of a 5% charcoal suspension was administered orally. Thirty minutes after administration of the charcoal meal, the rats were sacrificed by decapitation, and the gastrointestinal tract was removed. The distance from the pylorus to the point of arrival of the charcoal meal was measured and the transportation rate was calculated. The ID15 value was calculated from the dose-response curve using probit analysis and defined as the drug dose that inhibited intestinal propulsion in the control group by 15%.

[5] = target: T2, muscarinic M3 receptor; test: in vivo; set-up: from tissue; host or cells: living rat, airways; details: iv, 5 min, read-out: Airway contraction ID50
Description: as §1, §2, §3

[6] = target: T2, muscarinic M3 receptor; test: in vivo; set-up: from tissue; host or cells: living rat, airways; details: iv, read-out: Salivary secretion ID50
Description: as §1
2) Tests for salivary secretion in rats
Five- to seven-weeks-old male rats of the Sprague-Dawley strain were anesthetized with sodium pentobarbital (65 mg/kg, i.p.), and a cannula was inserted into the right jugular vein for purposes of drug administration. A test compound was administered intravenously. Five minutes later, carbachol (10 μg/kg, i.v.) was administered to evoke salivary secretion. For each rat, saliva collection was started immediately after carbachol administration and continued for ten minutes. This was carried out by inserting glass capillaries (Drummond, 100 μl) into the oral cavity of the rat at intervals of one minute. The amount of collected saliva was determined on the assumption that a length of 75 mm of the glass capillary corresponded to 100 μl. Physiological saline was used in the control group. The ID50 value was calculated from the dose-response curve of the test compound using probit analysis and defined as the drug dose that inhibited the carbachol-induced salivation in the control group by 50%.

[7] = target: T2, muscarinic M3 receptor; test: in vivo; set-up: from tissue; host or cells: living rat, airways; details: iv, read-out: Mydriasis ED50
Description: as §1
3) Tests for mydriasis in rats
Five- to seven-weeks-old male rats of the Sprague-Dawley strain were anesthetized with pentobarbital (65 mg/kg, i.p.), and a cannula was inserted into the right jugular vein for purposes of drug administration. By using a graduated scale (pulilometer), pupillary responses to drugs were measured to the nearest 0.1 mm at the point of the greatest diameter. […] Responses were expressed as percentages of the maximal increase in pupil diameter induced by administration of atropine (30 μg/kg, i.v.). The ED50 value was calculated from the dose-response curve of the test compound using probit analysis and defined as the drug dose that induced 50% of the maximal response.

T2 sequence (P08483 whole entry): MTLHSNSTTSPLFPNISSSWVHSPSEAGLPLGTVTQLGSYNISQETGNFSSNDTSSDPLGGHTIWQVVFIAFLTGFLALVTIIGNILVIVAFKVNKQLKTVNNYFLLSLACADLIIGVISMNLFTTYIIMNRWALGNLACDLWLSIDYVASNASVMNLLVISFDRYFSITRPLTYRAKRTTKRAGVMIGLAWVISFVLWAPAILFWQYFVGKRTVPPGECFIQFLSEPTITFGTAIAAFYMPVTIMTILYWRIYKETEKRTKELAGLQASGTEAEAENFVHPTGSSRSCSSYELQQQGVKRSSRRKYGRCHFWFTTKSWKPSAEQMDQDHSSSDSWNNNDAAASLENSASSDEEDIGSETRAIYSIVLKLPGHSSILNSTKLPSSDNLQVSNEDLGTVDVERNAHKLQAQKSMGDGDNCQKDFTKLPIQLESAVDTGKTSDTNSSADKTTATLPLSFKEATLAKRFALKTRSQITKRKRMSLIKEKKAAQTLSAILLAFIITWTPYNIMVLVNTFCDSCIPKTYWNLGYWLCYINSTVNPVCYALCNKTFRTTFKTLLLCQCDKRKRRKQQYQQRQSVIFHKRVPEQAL

Row | Structure (SMILES) | Activity with respect to all of the six types of responses (in words) [1] | Selectivity over the six types of responses (in words) [1] | ED50 [2] | Urinating contraction ID25 [3] | Enterokinesis ID15 [4] | ED50 [5] | ED50 [6] | ED50 [7]
1 | CN1[C@@H]2CC[C@H]1C[C@@H](OC(=O)C(CO)c1ccccc1)C2 (stereo partly shown) [Atropine] | potent activities | non-selective | 3.7 µg/kg | 0.027 mg/kg i.v. | 0.019 mg/kg i.v. | 4.3 µg/kg | 2.2 µg/kg | 18 µg/kg
2 | CC(C)[N+]1(C)[C@@H]2CC[C@H]1C[C@@H](OC(=O)C(CO)c1ccccc1)C2 (stereo partly shown) [Ipratropium] | potent activities | non-selective | 1.8 µg/kg | 0.0048 mg/kg i.v. | 0.004 mg/kg i.v. | 1.5 µg/kg | 1.8 µg/kg | 4.1 µg/kg

Source: US5750540A, “1,4-di-substituted piperidine derivatives” (Banyu Pharmaceutical Co., Ltd., priority 1995, dated 1998)
